Source: patent publication US9296704B2, “Substituted pyrimidines as protein kinase inhibitors” (CELGENE AVILOMICS RESEARCH, INC., priority 2007, dated 2016)

What was measured:
ErbB4 kinase domain = target: T1, ErbB4 kinase domain (Homo sapiens, UniProt Q15303); experiment: Mass spectrometry for ErbB4 (covalent modification); assay type: binding; conditions: 10-fold excess of compound, 90 minutes, MALDI
T1 construct: ErbB4 kinase domain (Upstate) was incubated with compound; purchased Upstate
Experimental: ErbB4 kinase domain (Upstate) was incubated with compound for 90 minutes at 10-fold excess of compound I-1 to protein. 1 ul aliquots of the samples (total volume of 4.24 ul) were diluted with 10 ul of 0.1% TFA prior to micro C4 ZipTipping directly onto the MALDI target using Sinapinic acid as the desorption matrix (10 mg/ml in 0.1% TFA:Acetonitrile 50:50). For intact protein mass measurement the instrument was set in Linear mode using a pulsed extraction setting of 16,952 for the myoglobin standard used to calibrate the instrument
Intact ErbB4 protein occurs at MH+ of 35850 with corresponding sinapinic (matrix) adducts occurring about 200 Da higher. A stochiometric incorporation of the compound I-1 (Mw of 410 Da) produced a new mass peak which is approximately 410 Da higher (MH+ of 36260).

EGFR wild type = target: T2, EGFR wild type (Homo sapiens, UniProt P00533); experiment: Mass spectrometry for EGFR wild type (covalent modification); assay type: binding; conditions: 10-fold excess of compound, 1 hr and 3 hrs, MALDI
T2 construct: Amino acids 696 to 1022 of the EGFR-WT kinase domain; six-histidine tag (TEV-cleavable) (C); made in house; host or cells: SF21 insect cells (baculovirus; P1 stocks in SF9)
Experimental: (§1) Amino acids 696 to 1022 of the EGFR-WT kinase domain (NM_005228, NP_005219.2) was subcloned into the NcoI and HindIII sites of the pFastHTa vector (Invitrogen, Carlsbad, Calif.). To make the EGFR-mutant protein, the cysteine at position 797 was changed to a serine using the Stratagene QuikChange kit (Stratagene, Cedar Creek, Tex.), according to manufacturer's instructions.
(§2) EGFR wild type and EGFR mutant (C797S) was incubated with 10-fold excess of compound I-1 for 1 hr and 3 hrs. 1 ul aliquots of the samples (total volume 5-8 ul) were diluted with 10 ul of 0.1% TFA prior to micro C4 ZipTipping directly onto the MALDI target using Sinapinic acid as the desorption matrix (10 mg/ml in 0.1% TFA:Acetonitrile 50:50). […] (See FIG. 8).

ErbB4 = ErbB4 (Homo sapiens, UniProt Q15303); experiment: Z'-LYTE biochemical assay, ErbB4 kinase inhibition
Experimental: Compounds of the present invention were assayed as inhibitors of one or more of ErbB1, ErbB2, and/or ErbB4 in a manner substantially similar to the method described by Invitrogen Corp (Invitrogen Corporation, 1600 Faraday Avenue, Carlsbad, Calif., CA; http://www.invitrogen.com/downloads/Z-LYTE_Brochure—1205.pdf) using the Z′-LYTE™ biochemical assay procedure or similar biochemical assay. The Z′-LYTE™ biochemical assay employs a fluorescence-based, coupled-enzyme format and is based on the differential sensitivity of phosphorylated and non-phosphorylated peptides to proteolytic cleavage.

EGFR mutant (C797S) = target: T3, EGFR mutant (C797S) (Homo sapiens, UniProt P00533, C797S); experiment: Mass spectrometry for EGFR mutant (C797S); assay type: binding; conditions: 10-fold excess of compound, up to 3 hrs, MALDI
T3 construct: Amino acids 696 to 1022 of the EGFR-WT kinase domain; six-histidine tag (TEV-cleavable) (C); made in house; host or cells: SF21 insect cells (baculovirus; P1 stocks in SF9)
Experimental: as §1, §2

[1] = tested on: EGFR (ErbB1) in A431 human epidermoid carcinoma cells; experiment: Washout experiment for EGFR activity in A431 cells; assay type: cell-based
Experimental: A431 human epidermoid carcinoma cells were grown in 6-well plates to 90% confluence and then incubated in serum-free media for 18 hr. Duplicate sets of cells were treated with 1 μM designated compound for 1 hr. One set of cells was then stimulated with 100 ng/ml EGF for 5 min, and extracts were made as described. The other set of cells was washed free of the compound with warmed compound-free medium, incubated for 2 hr, washed again, incubated another 2 hr, washed again, and then incubated another 2 hr washed again and incubated for additional 2 hr and then stimulated with EGF.

TEC kinase = target: T4, TEC kinase (Homo sapiens, UniProt P42680); experiment: Mass spectrometry for TEC kinase (tryptic digest); assay type: binding, homo sapien; conditions: 10× excess, 3 hrs, MALDI
T4 construct: purchased Invitrogen
T4 sequence (P42680 1-631): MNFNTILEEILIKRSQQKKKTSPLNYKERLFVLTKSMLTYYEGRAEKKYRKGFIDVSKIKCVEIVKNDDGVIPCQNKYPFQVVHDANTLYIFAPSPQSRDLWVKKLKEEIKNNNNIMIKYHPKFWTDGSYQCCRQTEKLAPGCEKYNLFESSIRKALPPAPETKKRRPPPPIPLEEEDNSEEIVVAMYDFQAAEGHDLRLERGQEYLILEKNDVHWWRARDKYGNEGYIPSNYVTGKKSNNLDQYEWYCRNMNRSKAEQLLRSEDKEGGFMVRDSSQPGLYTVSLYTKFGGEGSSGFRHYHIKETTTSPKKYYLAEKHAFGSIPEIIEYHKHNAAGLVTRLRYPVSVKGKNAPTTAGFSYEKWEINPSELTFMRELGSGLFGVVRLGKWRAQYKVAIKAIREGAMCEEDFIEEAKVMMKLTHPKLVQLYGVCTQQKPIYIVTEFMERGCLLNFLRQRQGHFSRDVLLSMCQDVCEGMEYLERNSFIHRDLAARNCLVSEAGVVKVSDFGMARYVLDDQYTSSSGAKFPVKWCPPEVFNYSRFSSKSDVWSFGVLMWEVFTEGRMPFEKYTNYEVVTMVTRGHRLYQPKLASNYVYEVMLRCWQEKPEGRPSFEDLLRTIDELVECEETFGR
Experimental: TEC kinase (45 pmols; Invitrogen) was incubated with (I-13) (450 pmols) for 3 hrs at 10× access prior to tryptic digestion. Iodoacetamide was used as the alkylating agent after compound incubation. […] For tryptic digests a 5 ul aliquot (7.5 pmols) was diluted with 15 ul of 0.1% TFA prior to micro C18 Zip Tipping directly onto the MALDI target using alpha cyano-4-hydroxy cinnamic acid as the matrix (5 mg/ml in 0.1% TFA:Acetonitrile 50:50).
As depicted in FIG. 11, the expected peptide (GCLLNFLR) to be modified was immediately evident at MH+ of 1358.65. This is the mass to be expected when compound I-13, with an adduct mass of 423.17, is added to the peptide mass of 935.51. The peptide was also quite evident in the control sample as modified by Iodacetamide at MH+ of 992.56. […] There was no evidence of any other modified peptides.
To further verify the presence of the modified peptide with compound I-13, the peptide at MH+ of 1358.65 was subjected to PSD (MS/MS) analysis. A correlational analysis with the homo sapien database identified the correct peptide modified by I-13.
For tryptic digests the instrument was set in Reflectron mode with a pulsed extraction setting of 2200. Calibration was done using the Laser Biolabs Pep Mix standard (1046.54, 1296.69, 1672.92, 2093.09, 2465.20). […]

Sequence of ErbB4 (Q15303 26-1308): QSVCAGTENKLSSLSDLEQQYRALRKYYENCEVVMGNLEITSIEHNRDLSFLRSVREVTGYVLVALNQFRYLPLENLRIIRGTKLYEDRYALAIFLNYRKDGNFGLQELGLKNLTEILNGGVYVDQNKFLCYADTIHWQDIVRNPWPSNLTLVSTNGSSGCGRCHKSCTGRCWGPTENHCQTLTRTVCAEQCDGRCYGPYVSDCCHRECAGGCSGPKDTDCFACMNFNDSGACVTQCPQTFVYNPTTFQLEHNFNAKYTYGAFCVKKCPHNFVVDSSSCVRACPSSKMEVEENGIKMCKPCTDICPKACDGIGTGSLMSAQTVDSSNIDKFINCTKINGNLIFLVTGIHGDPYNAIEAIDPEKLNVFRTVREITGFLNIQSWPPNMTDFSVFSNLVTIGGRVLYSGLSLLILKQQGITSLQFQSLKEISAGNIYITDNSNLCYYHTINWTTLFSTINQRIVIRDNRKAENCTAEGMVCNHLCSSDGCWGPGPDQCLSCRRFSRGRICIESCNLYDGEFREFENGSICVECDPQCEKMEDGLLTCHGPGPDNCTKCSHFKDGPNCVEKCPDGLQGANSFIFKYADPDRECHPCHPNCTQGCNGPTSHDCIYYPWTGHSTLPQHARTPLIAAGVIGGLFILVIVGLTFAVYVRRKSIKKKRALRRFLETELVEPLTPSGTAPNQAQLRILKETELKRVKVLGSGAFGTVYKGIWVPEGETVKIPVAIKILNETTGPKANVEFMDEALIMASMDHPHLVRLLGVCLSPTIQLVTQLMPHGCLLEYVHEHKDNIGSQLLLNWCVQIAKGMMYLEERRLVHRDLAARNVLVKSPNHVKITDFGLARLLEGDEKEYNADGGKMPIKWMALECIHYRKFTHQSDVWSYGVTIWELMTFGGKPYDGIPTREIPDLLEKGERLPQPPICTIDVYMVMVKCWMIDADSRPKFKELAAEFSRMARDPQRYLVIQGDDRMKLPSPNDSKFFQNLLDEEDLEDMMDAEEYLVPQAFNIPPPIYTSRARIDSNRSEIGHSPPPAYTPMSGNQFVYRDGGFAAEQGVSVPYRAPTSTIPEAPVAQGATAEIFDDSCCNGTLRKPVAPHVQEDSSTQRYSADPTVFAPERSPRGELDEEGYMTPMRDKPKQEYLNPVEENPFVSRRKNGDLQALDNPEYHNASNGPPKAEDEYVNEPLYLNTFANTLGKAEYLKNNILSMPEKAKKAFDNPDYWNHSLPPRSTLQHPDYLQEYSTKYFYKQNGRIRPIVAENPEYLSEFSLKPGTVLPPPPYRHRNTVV
T1 sequence (Q15303 718-985 limits assumed): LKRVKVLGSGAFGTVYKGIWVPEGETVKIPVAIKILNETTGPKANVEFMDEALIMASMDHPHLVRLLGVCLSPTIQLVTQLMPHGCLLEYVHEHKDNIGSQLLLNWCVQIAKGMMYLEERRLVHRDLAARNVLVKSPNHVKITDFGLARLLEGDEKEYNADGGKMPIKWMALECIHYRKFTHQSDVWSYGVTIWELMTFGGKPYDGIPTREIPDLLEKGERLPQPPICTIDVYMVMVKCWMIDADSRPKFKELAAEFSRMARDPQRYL

| modification of ErbB4 by intact mass (ErbB4 kinase domain) | reactivity with EGFR wild type by intact mass (EGFR wild type) | inhibition at 0.1 µM (ErbB4; @ 100 nM) [%] | inhibition at 1 µM (ErbB4; @ 1 μM) [%] | reactivity with EGFR mutant (C797S) by intact mass (EGFR mutant (C797S)) | SMILES | enzyme inhibition after washout ([1]; A431 cells, 1 μM for 1 hr, washout, EGF stimulation) | type of binding to ErbB1 (irreversible / reversible) ([1]; washout experiment, FIG. 2) | modification of TEC peptide GCLLNFLR in tryptic digest (TEC kinase) |
| --- | --- | --- | --- | --- | --- | --- | --- | --- |
| covalent modification of ErbB4 | single site covalent modification | 64 | 86 | no significant reactivity | C=CC(=O)Nc1cccc(Nc2cc(Nc3cccc(Br)c3)ncn2)c1 [I-1, N-{3-[6-(3-bromophenylamino)-pyrimidin-4-ylamino]-phenyl}-2-propenamide] | maintains enzyme inhibition | irreversibly binds to ErbB1 |  |
|  |  |  |  |  | C=CC(=O)Nc1cccc(Nc2cc(Nc3ccc(Oc4ccccc4)cc3)ncn2)c1 [I-13, N-{3-[6-(4-phenoxyphenylamino)-pyrimidin-4-ylamino]phenyl}-2 propenamide] |  |  | reaction was complete |
